Assay results reported in patent US20020049223A1, “Quinoline and naphthyridine carboxylic acid antibacterials” (priority 1999, published 2002).

Experiments:
Escherichia coli JUHL [1] = assay: Assay B: in vitro antibacterial activity, broth microdilution MIC (NCCLS); format: cell-based; details: Table 2, Assay B, cation-adjusted Mueller Hinton broth, 35° C., 16 to 20 hr; code D = Escherichia coli JUHL; unit assumed
How it was run: (§1)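 MIC is the lowest concentration with no visible growth after serial two-fold dilution in cation-adjusted Mueller Hinton broth, approximately 5×10^5 CFU/mL inoculum, 16-20 h at 35 °C in air (NCCLS). Broth for H. influenzae gets 5 g/L yeast extract, 0.3 mmol/L hematin and 15 mg/L NAD, for S. pneumoniae 3% lysed horse blood; both incubated 20-24 h.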

[2] = test system: Haemophilus influenzae DILL AMP R; assay: as above; format: cell-based; details: Table 2, Assay B, Mueller Hinton broth with yeast extract, hematin and NAD, 20 to 24 hr; code E = Haemophilus influenzae DILL AMP R; unit assumed
How it was run: as §1

[3] = test system: Staphylococcus aureus ATCC 6538P; assay: as above; format: cell-based; details: Table 2, Assay B, cation-adjusted Mueller Hinton broth, 35° C., 16 to 20 hr; code A = Staphylococcus aureus ATCC 6538P; unit assumed
How it was run: as §1

[4] = test system: Streptococcus pneumoniae ATCC 6303; assay: as above; format: cell-based; details: Table 2, Assay B, Mueller Hinton broth with 3% lysed horse blood, 20 to 24 hr; code F = Streptococcus pneumoniae ATCC 6303; unit assumed
How it was run: as §1

[5] = test system: Enterococcus faecalis PIU 1967; assay: as above; format: cell-based; details: Table 2, Assay B, cation-adjusted Mueller Hinton broth, 35° C., 16 to 20 hr; code B = Enterococcus faecalis PIU 1967; unit assumed
How it was run: as §1

Escherichia coli JUHL [6] = assay: Assay A: in vitro antibacterial activity, agar dilution MIC; format: cell-based; details: Table 1, Assay A, BHI agar, 35-37° C., about 20 to 24 hours; code D = Escherichia coli JUHL; unit assumed
Method: (§2) Assay A. Determination of Biological Activity In Vitro Assay of Antibacterial Activity
(§3) Representative compounds of the invention were assayed in vitro for antibacterial activity. Twelve petri dishes containing successive aqueous dilutions of the test compound mixed with sterilized Brain Heart Infusion (BHI) agar (Difco 0418-01-5) (10 mL) were prepared. Each plate was inoculated with 1:100 (or 1:10 for slow-growing strains, such as Micrococcus and Streptococcus) dilutions of up to 32 different microorganisms using a Steers replicator block. The inoculated plates were incubated at 35-37° C. for about 20 to about 24 hours. In addition, a control plate with BHI agar and no test compound was prepared and incubated at the beginning and end of each test.
(§4) An additional plate containing a compound having known susceptibility patterns for the organisms being tested and belonging to the same antibiotic class as the test compound was also prepared and incubated as a further control and to provide test-to-test comparability. Ciprofloxacin was used for this purpose.
(§5) After incubation, each plate was visually inspected. The minimum inhibitory concentration (MIC) was defined as the lowest concentration of drug yielding no growth, a slight haze, or sparsely isolated colonies on the inoculum spot as compared to the growth control.

[7] = test system: Haemophilus influenzae DILL AMP R; assay: as above; format: cell-based; details: Table 1, Assay A, BHI agar, 35-37° C., about 20 to 24 hours; code E = Haemophilus influenzae DILL AMP R; unit assumed
Method: as §2, §3, §4, §5

[8] = test system: Staphylococcus aureus ATCC 6538P; assay: as above; format: cell-based; details: Table 1, Assay A, BHI agar, 35-37° C., about 20 to 24 hours; code A = Staphylococcus aureus ATCC 6538P; unit assumed
Method: as §2, §3, §4, §5

[9] = test system: Streptococcus pneumoniae ATCC 6303; assay: as above; format: cell-based; details: Table 1, Assay A, BHI agar, 35-37° C., about 20 to 24 hours; code F = Streptococcus pneumoniae ATCC 6303; unit assumed
Method: as §2, §3, §4, §5

[10] = test system: Enterococcus faecalis PIU 1967; assay: as above; format: cell-based; details: Table 1, Assay A, BHI agar, 35-37° C., about 20 to 24 hours; code B = Enterococcus faecalis PIU 1967; unit assumed
Method: as §2, §3, §4, §5

[11] = test system: Moraxella catarrahalis 2604; assay: as above; format: cell-based; details: Table 1, Assay A, BHI agar, 35-37° C., about 20 to 24 hours; code C = Moraxella catarrahalis 2604; unit assumed
Method: as §2, §3, §4, §5

SMILES | melting point | Antibacterial Activity (MIC's), D (Escherichia coli JUHL [1]) [µg/mL] | Antibacterial Activity (MIC's), E [2] [µg/mL] | Antibacterial Activity (MIC's), A [3] [µg/mL] | Antibacterial Activity (MIC's), F [4] [µg/mL] | Antibacterial Activity (MIC's), B [5] [µg/mL] | Antibacterial Activity (MIC's), D (Escherichia coli JUHL [6]) [µg/mL] | Antibacterial Activity (MIC's), E [7] [µg/mL] | Antibacterial Activity (MIC's), A [8] [µg/mL] | Antibacterial Activity (MIC's), F [9] [µg/mL] | Antibacterial Activity (MIC's), B [10] [µg/mL] | Antibacterial Activity (MIC's), C [11] [µg/mL]
COc1c(-c2cc3c(s2)C(N)CCC3)c(F)cc2c(=O)c(C(=O)O)cn(C3CC3)c12.Cl (centres unmarked) [Example 228, 7-(7-amino-4,5,6,7-tetrahydro-1-benzothien-2-yl)-1-cyclopropyl-6-fluoro-8-methoxy-4-oxo-1,4-dihydro-3-quinolinecarboxylic acid hydrochloride] | 148 to 153 °C (dec.) | 0.06 | 0.015 | 0.008 | 0.015 | 0.03 |  |  |  |  |  | 
Br.CC1Cc2sc(-c3ccc4c(=O)c(C(=O)O)cn(C5CC5)c4c3)cc2CN1 (centres unmarked) [Example 13, 1-cyclopropyl-7-(6-methyl-4,5,6,7-tetrahydrothieno[3,2-c]pyridin-2-yl)-4-oxo-1,4-dihydro-3-quinolinecarboxylic acid hydrobromide] |  |  |  |  |  |  | 0.2 | 0.25 | 0.1 | 0.25 | 0.2 | 0.2
COc1c(-c2cc3c(s2)SCCC3N)ccc2c(=O)c(C(=O)O)cn(C3CC3)c12.Cl (centres unmarked) [Example 37, 7-(4-amino-5,6-dihydro-4H-thieno[2,3-b]thiopyran-2-yl)-1-cyclopropyl-8-methoxy-4-oxo-1,4-dihydro-3-quinolinecarboxylic acid hydrochloride] |  |  |  |  |  |  | 0.2 | 0.125 | 0.05 | 0.25 | 0.1 | 0.1
COc1c(-c2cc3c(s2)CC(O)CC3)ccc2c(=O)c(C(=O)O)cn(C3CC3)c12 (centres unmarked) [Example 47, 1-cyclopropyl-7-(6-hydroxy-4,5,6,7-tetrahydro-1-benzothien-2-yl)-8-methoxy-4-oxo-1,4-dihydro-3-quinolinecarboxylic acid] |  |  |  |  |  |  | 1.56 | 0.5 | 0.01 | 0.5 | 0.2 | 0.02
O=C(O)c1cn(C2CC2)c2nc(-c3cc4c(s3)CCC/C4=N\O)c(F)cc2c1=O [Example 49, 1-cyclopropyl-6-fluoro-7-((4E)-4-(hydroxyimino)-4,5,6,7-tetrahydro-1-benzothien-2-yl)-4-oxo-1,4-dihydro[1,8]naphthyridine-3-carboxylic acid] |  |  |  |  |  |  | 0.78 | 0.06 | 0.05 | 0.25 | 0.39 | 0.05
CC1NCCc2cc(-c3ccc4c(=O)c(C(=O)O)cn(C5CC5)c4c3OC(F)F)sc21.Cl (centres unmarked) [Example 52, 1-cyclopropyl-8-diflouromethoxy-7-(7-methyl-4,5,6,7-tetrahydrotheino(2,3-c)pyrindin-2-yl)-4-oxo-1,4-dihydro-3-quinolinecarboxylic acid hydrochloride] |  |  |  |  |  |  | 0.39 | 0.25 | 0.2 | 0.25 | 0.78 | 0.2
COc1c(-c2cc3c(s2)CC(O)C3)ccc2c(=O)c(C(=O)O)cn(C3CC3)c12 (centres unmarked) [Example 45, 1-cyclopropyl-7-(5-hydroxy-5,6-dihydro-4H-cyclopentarblthien-2-yl)-8-methoxM-4-oxo-1,4-dihydro-3-quinolinecarboxylic acid] |  |  |  |  |  |  | 0.39 | 0.03 | 0.05 | 0.25 | 0.2 | 0.1
COc1c(-c2cc3c(s2)CCC(C)(C)C3O)ccc2c(=O)c(C(=O)O)cn(C3CC3)c12 (centres unmarked) [Example 213, 1-cyclopropyl-7-(4-hydroxy-5,5-dimethyl-4,5,6,7-tetrahydro-1-benzothien-2-yl)-8-methoxy-4-oxo-1,4-dihydro-3-quinolinecarboxylic acid] | 93 to 94 °C | 0.5 | 0.25 | 0.03 | 0.5 | 0.5 |  |  |  |  |  | 
Br.CC1(C)CNCc2cc(-c3ccc4c(=O)c(C(=O)O)cn(C5CC5)c4c3OC(F)F)sc21 [Example 28] |  |  |  |  |  |  | 0.78 | 0.25 | 0.2 | 1 | 0.78 | 0.2
O=C(O)c1cn(C2CC2)c2nc(-c3cc4c(s3)CCCC4O)c(F)cc2c1=O (centres unmarked) [Example 35, 1-cyclopropyl-6-fluoro-7-(4-hydroxy-4,5,6,7-tetrahydro-1-benzothien-2-yl)-4-oxo-1,4-dihydro[1,8]naphthyridine-3-carboxylic acid] |  |  |  |  |  |  | 0.78 | 0.06 | 0.05 | 0.5 | 0.78 | 0.05
O=C1CCCc2sc(-c3nc4c(cc3F)c(=O)c(C(=O)O)cn4C3CC3)cc21 [Example 48, 1-cyclopropyl-6-fluoro-4-oxo-7-(4-oxo-4,5,6,7-tetrahydro-1-benzothien-2-yl)-1,4-dihydro[1,8]naphthyridine-3-carboxylic acid] |  |  |  |  |  |  | 0.78 | 0.06 | 0.02 | 0.25 | 0.2 | 0.02
COc1c(-c2cc3c(s2)C(N)CCC3)ccc2c(=O)c(C(=O)O)cn(C3CC3)c12.Cl (centres unmarked) [Example 201, 7-(7-amino-4,5,6,7-tetrahydro-1-benzothien-2-yl)-1-cyclopropyl-8-methoxy-4-oxo-1,4-dihydro-3-quinolinecarboxylic acid hydrochloride] | 174 to 178 °C | 0.125 | 0.03 | 0.015 | 0.03 | 0.06 |  |  |  |  |  | 
COc1c(-c2cc3c(s2)CCC(C)(C)/C3=N\O)ccc2c(=O)c(C(=O)O)cn(C3CC3)c12 [Example 233, 1-cyclopropyl-7-((4E/Z)-4-(hydroxyimino)-5,5-dimethyl-4,5,6,7-tetrahydro-1-benzothien-2-yl)-8-methoxy-4-oxo-1,4-dihydro-3-quinolinecarboxylic acid] | 135 to 138 °C | 8 | 0.5 | 0.03 | 2 | 0.5 |  |  |  |  |  | 
COc1c(-c2cc3c(s2)CCCC3=O)ccc2c(=O)c(C(=O)O)cn(C3CC3)c12 [Example 50, 1-cyclopropyl-8-methoxy-4-oxo-7-(4-oxo-4,5,6,7-tetrahydro-1-benzothien-2-yl)-1,4-dihydro-3-quinolinecarboxylic acid] | 266 to 267 °C |  |  |  |  |  |  |  |  |  |  | 
CC1CNCc2sc(-c3nc4c(cc3F)c(=O)c(C(=O)O)cn4C3CC3)cc21.Cl (centres unmarked) | 288 to 290 °C |  |  |  |  |  |  |  |  |  |  | 
